Assay results: patent US20230293512A1, “S100 PROTEINS AS NOVEL THERAPEUTIC TARGETS IN MYELOPROLIFERATIVE NEOPLASMS” (ERASMUS UNIVERSITY MEDICAL CENTER ROTTERDAM, priority 2020, published 2023)

How the values were obtained:
S100A8 and S100A9 = conditions: Stewart et al, Bone Marrow Res. 2018; cited from earlier work
S100A9 protein = biological target: T1, S100A9 protein (Homo sapiens, UniProt P06702); conditions: cited from earlier work
T1 sequence (P06702 1-114): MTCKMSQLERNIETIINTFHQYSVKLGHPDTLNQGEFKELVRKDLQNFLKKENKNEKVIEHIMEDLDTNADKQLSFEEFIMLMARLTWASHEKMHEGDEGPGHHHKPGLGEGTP

[1] = system: mice developing JAK2(V617F)-mediated myelofibrosis; assay: Tasquinimod treatment of mice with JAK2(V617F)-induced myelofibrosis; type: in vivo; conditions: JAK2(V617F)-transplanted mice, 30 mg/kg/day in drinking water; for MPN-specific leukocytosis (white blood cell counts from peripheral blood) / splenomegaly (spleen weights normalized to mouse weight) / bone marrow fibrosis grade (reticulin grade): 30 mg/kg/day; for bone marrow fibrosis grade (reticulin grade): vehicle-treated mice developed grade 2-3 fibrosis and osteosclerosis
Procedure: Murine organs were fixed in 4% paraformaldehyde for 24 hours and transferred to 70% ethanol. Femurs were decalcified in 10% EDTA/Tris-HCl (pH 6.6) solution for 72 hours, dehydrated and paraffin embedded. H&E and reticulin staining were performed on 4 μm sections according to established routine protocols.
Blood was periodically collected from mice via submandibular bleeds into Microtainer tubes coated with K2EDTA (Becton Dickinson, NJ, USA) and complete blood counts were performed on a Horiba Scil Vet abc Plus hematology system.
For tasquinimod studies, WT recipient mice (n=7-10/group) were lethally irradiated (10.5 Gy) and received ckit^+ cells transduced with […] or JAK2^(WT) retroviral virus. Tasquinimod treatment (ABR-215050, Biorbyt) was administered via drinking water at 30 mg/kg/day dissolved in 3% sucrose in autoclaved water. Tasquinimod was first dissolved in DMSO and mixed with 3% sucrose, 2% PEG300 (Sigma) in water. Vehicle-treated groups received DMSO-, PEG300-treated water with 3% sucrose. Drinking bottles were renewed twice a week. Treatment was started at 5 weeks post-transplant until 10 post-transplant, and resumed at 13 weeks post-transplant until sacrifice at 20 weeks post-transplant. Mice were randomly assigned to transplant and treatment groups.
To further validate the role of S100A8/S100A9 in the fibrotic initiation and progression, the inventors sought to use a S100A9-inhibitor known as tasquinimod (ABR-215050) in mice developing JAK2(V617F)-mediated myelofibrosis. […] Tasquinimod treatment was administered via drinking water starting at 5 weeks post-transplant, until sacrifice at 20 weeks post-transplant with a treatment break at 10 weeks post-transplant to minimize deleterious effects on normal granulocyte function (FIG. 4A).

[2] = weeks 5-10 and 13-20 post-transplant, vs vehicle
[3] = weeks 5-10 and 13-20 post-transplant, vs vehicle, listed as Tasquinimod

| Structure (SMILES) | S100A8 and S100A9 mRNA and protein levels (S100A8 and S100A9) | binding to S100A9 protein and effect on its interaction with TLR4 and RAGE receptors (S100A9 protein) | thrombocytosis (platelet counts in peripheral blood) [1, 2] | MPN-specific leukocytosis (white blood cell counts from peripheral blood) [1, 2] | splenomegaly (spleen weights normalized to mouse weight) [1, 2] | MPN-specific leukocytosis (white blood cell counts from peripheral blood) [1, 3] | splenomegaly (spleen weights normalized to mouse weight) [1, 3] | bone marrow fibrosis grade (reticulin grade) [1] | bone marrow fibrosis grade (reticulin grade) ([1]; listed as Tasquinimod) |
| --- | --- | --- | --- | --- | --- | --- | --- | --- | --- |
| Cc1sc2c(c1C)C(c1ccc(Cl)cc1)=N[C@@H](CC(=O)OC(C)(C)C)c1nnc(C)n1-2 [JQ1] | suppress S100A8 and S100A9 mRNA and protein levels |  |  |  |  |  |  |  |  |
| COc1cccc2c1c(O)c(C(=O)N(C)c1ccc(C(F)(F)F)cc1)c(=O)n2C [tasquinimod, 4-hydroxy-5-methoxy-N,1-dimethyl-2-oxo-N-[4-(trifluoromethyl)phenyl]-1,2-dihydroquinoline-3-carboxamide] |  | binds to S100A9 protein and impedes its interaction with TLR4 and RAGE receptors | did not develop thrombocytosis | did not develop MPN-specific leukocytosis | completely normalized | normalizes splenomegaly and leukocytosis | normalizes splenomegaly | reduced fibrosis grade | reduces fibrosis in bone marrow |
